Experimental data reported in patent US8846951B2 (AbbVie Inc., priority 2009, dated 2014).
Read-outs that look alike come from different tables or passages of the source.

Key:
5HT2B receptors = biological target: T1, 5HT2B receptors (Homo sapiens, UniProt P41595); assay: Human 5-HT2B functional high throughput screening assay in CHO-K1 cells (calcium flux); format: cell-based; conditions: for EC50: CHO-K1 cells, calcium flux
T1 construct: expressed in transfected cells; host or cells: CHO-K1 cells
T1 sequence (P41595 whole entry): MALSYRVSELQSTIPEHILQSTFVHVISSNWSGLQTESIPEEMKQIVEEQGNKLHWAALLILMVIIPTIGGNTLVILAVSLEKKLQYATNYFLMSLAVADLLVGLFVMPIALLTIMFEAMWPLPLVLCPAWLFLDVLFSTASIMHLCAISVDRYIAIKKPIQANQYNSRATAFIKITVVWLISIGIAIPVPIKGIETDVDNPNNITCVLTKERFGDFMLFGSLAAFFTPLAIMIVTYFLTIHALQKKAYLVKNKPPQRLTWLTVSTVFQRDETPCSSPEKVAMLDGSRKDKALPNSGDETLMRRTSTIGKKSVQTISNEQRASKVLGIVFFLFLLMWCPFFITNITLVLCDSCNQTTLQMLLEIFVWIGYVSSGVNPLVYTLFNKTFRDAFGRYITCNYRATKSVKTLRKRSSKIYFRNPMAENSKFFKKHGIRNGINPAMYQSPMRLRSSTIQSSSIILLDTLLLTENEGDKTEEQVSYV
Summary of the method: (§1)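 Calcium flux in CHO-K1 cells overexpressing each receptor, using Ca4 dye with probenecid and FLIPR detection. Top concentration was 10 μM, diluted 1:10 across 6 points, and efficacy was scaled to serotonin.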

5HT2C receptors = biological target: T2, 5HT2C receptors (Homo sapiens, UniProt P28335); assay: Human 5-HT2C functional high throughput screening assay in CHO-K1 cells (calcium flux); format: cell-based; parameters: expressed in transfected cells; host or cells: CHO-K1 cells; conditions: for EC50: CHO-K1 cells, calcium flux; for Emax: CHO-K1, 5-HT2C, maximum functional response as percentage relative to the effect of serotonin
T2 sequence (P28335 33-458): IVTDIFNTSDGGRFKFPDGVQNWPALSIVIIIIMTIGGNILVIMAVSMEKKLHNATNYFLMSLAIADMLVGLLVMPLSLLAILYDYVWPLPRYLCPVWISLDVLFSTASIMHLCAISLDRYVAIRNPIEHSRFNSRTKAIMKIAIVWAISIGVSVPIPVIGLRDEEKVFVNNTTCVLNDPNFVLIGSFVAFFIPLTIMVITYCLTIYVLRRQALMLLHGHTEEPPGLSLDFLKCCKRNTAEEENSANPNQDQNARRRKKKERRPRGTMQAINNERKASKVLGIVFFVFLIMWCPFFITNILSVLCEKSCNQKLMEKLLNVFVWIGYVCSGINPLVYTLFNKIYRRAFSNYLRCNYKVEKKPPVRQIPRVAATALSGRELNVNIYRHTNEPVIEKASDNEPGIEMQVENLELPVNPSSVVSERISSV
Summary of the method: as §1

[1] = 5-HT2B agonist activity, read-out: EC50
[2] = 5-HT2B, maximum functional response as percentage relative to the effect of serotonin
[3] = 5-HT2C agonist activity, read-out: EC50

| SMILES | EC50 (5HT2B receptors; [1]) [nM] | Emax (5HT2B receptors; [2]) | EC50 (5HT2C receptors; [3]) [nM] | Emax (5HT2C receptors; read-out: Emax) [%] | EC50 (5HT2B receptors; EC50, 5-HT2B agonist activity) [nM] | Emax (5HT2C receptors) [%] | EC50 (5HT2C receptors; EC50, 5-HT2C agonist activity) [nM] | Emax (5HT2B receptors; CHO-K1) [%] |
| --- | --- | --- | --- | --- | --- | --- | --- | --- |
| CN1C[C@@H]2CNC(=O)c3cc(Cl)ccc3[C@H]2C1 [Example 199, (3aS,10bS)-8-Chloro-2-methyl-1,2,3,3a,4,5-hexahydrobenzo[e]pyrrolo[3,4-c]azepin-6(10bH)-one] | – | inactive | – | – | > 10000 | > 120 | 10 | – |
| CN1C[C@@H]2CNC(=O)c3cc(O)ccc3[C@H]2C1 [Example 200, (3aS,10bS)-8-Hydroxy-2-methyl-1,2,3,3a,4,5-hexahydrobenzo[e]pyrrolo[3,4-c]azepin-6(10bH)-one] | > 10000 | inactive | 500 | – | – | 55 | – | – |
| CN1C[C@@H]2CNC[C@H]2c2ccc(F)cc2C1=O [Example 226, (3aS,10bR)-8-Fluoro-5-methyl-1,2,3,3a,4,5-hexahydrobenzo[c]pyrrolo[3,4-e]azepin-6(10bH)-one] | – | inactive | – | – | > 10000 | > 120 | – | – |
| CN1C[C@@H]2CNC(=O)c3cc(-c4cccc(S(C)(=O)=O)c4)ccc3[C@H]2C1 [Example 228, (3aS,10bS)-2-Methyl-8-(3-(methylsulfonyl)phenyl)-1,2,3,3a,4,5-hexahydrobenzo[c]pyrrolo[3,4-e]azepin-6(10bH)-one] | > 10000 | inactive | 7 | > 120 | – | – | – | – |
| CN1C[C@H]2CNC(=O)c3cc(-c4cccc(S(C)(=O)=O)c4)ccc3[C@@H]2C1 [Example 229, (3aR,10bR)-2-Methyl-8-(3-(methylsulfonyl)phenyl)-1,2,3,3a,4,5-hexahydrobenzo[c]pyrrolo[3,4-e]azepin-6(10bH)-one] | > 10000 | inactive | – | 90 | – | – | – | – |
| Clc1ccc2c(c1)[C@H]1CNC[C@@H]1CCO2 [Example 233, (3aR,10bS)-9-Chloro-2,3,3a,4,5,10b-hexahydro-1H-[1]benzoxepino[4,5-c]pyrrole] | – | – | – | – | – | > 120 | – | 55 |
| CN1C[C@@H]2CCOc3ccc(Cl)cc3[C@H]2C1 [Example 234, (3aR,10bS)-9-Chloro-2-methyl-2,3,3a,4,5,10b-hexahydro-1H-[1]benzoxepino[4,5-c]pyrrole] | – | – | – | – | 10 | > 120 | 10 | 70 |
| CN1C[C@@H]2CCOc3ccccc3[C@H]2C1 [Example 235, (3aR,10bS)-2-Methyl-2,3,3a,4,5,10b-hexahydro-1H-[1]benzoxepino[4,5-c]pyrrole] | – | – | – | – | 100 | 120 | 40 | 45 |
| C[C@H](O)c1cccc(-c2ccc3c(c2)C(=O)NC[C@H]2CN(C)C[C@H]32)c1 [Example 248, (3aS,10bS)-8-(3-((S)-1-Hydroxyethyl)phenyl)-2-methyl-1,2,3,3a,4,5-hexahydrobenzo[e]pyrrolo[3,4-c]azepin-6(10bH)-one] | > 10000 | inactive | 2 | 100 | – | – | – | – |
| C[C@@H](O)c1cccc(-c2ccc3c(c2)C(=O)NC[C@H]2CN(C)C[C@H]32)c1 [Example 249, (3aS,10bS)-8-(3-((R)-1-Hydroxyethyl)phenyl)-2-methyl-1,2,3,3a,4,5-hexahydrobenzo[e]pyrrolo[3,4-c]azepin-6(10bH)-one] | > 10000 | inactive | 2 | 100 | – | – | – | – |

Second part, led by results:

| EC50 (5HT2B receptors; [1]) [nM] | Emax (5HT2B receptors; [2]) | EC50 (5HT2C receptors; [3]) [nM] | Emax (5HT2C receptors; read-out: Emax) [%] | SMILES | EC50 (5HT2B receptors; EC50, 5-HT2B agonist activity) [nM] | Emax (5HT2C receptors) [%] | EC50 (5HT2C receptors; EC50, 5-HT2C agonist activity) [nM] | Emax (5HT2B receptors; CHO-K1) [%] |
| --- | --- | --- | --- | --- | --- | --- | --- | --- |
| > 10000 | inactive | 10 | > 120 | C[C@H](Cc1ccccc1)Oc1ccc2c(c1)C(=O)NC[C@H]1CNC[C@H]21 [Example 181, (3aR,10bS)-8-((R)-1-Phenylpropan-2-yloxy)-1,2,3,3a,4,5-hexahydrobenzo[e]pyrrolo[3,4-c]azepin-6(10bH)-one] | – | – | – | – |
| > 10000 | inactive | 2 | > 120 | CN1C[C@@H]2CNC(=O)c3cc(OCc4cccc(F)c4)ccc3[C@H]2C1 [Example 206, (3aS,10bS)-8-(3-Fluorobenzyloxy)-2-methyl-1,2,3,3a,4,5-hexahydrobenzo[e]pyrrolo[3,4-c]azepin-6(10bH)-one] | – | – | – | – |
| > 10000 | inactive | 1 | > 120 | CN1C[C@@H]2CNC(=O)c3cc(OCc4ccccc4F)ccc3[C@H]2C1 [Example 207, (3aS,10bS)-8-(2-Fluorobenzyloxy)-2-methyl-1,2,3,3a,4,5-hexahydrobenzo[e]pyrrolo[3,4-c]azepin-6(10bH)-one] | – | – | – | – |
| > 10000 | inactive | 2 | > 120 | CN1C[C@@H]2CNC(=O)c3cc(OCc4cc(F)cc(F)c4)ccc3[C@H]2C1 [Example 208, (3aS,10bS)-8-(3,5-Difluorobenzyloxy)-2-methyl-1,2,3,3a,4,5-hexahydrobenzo[e]pyrrolo[3,4-c]azepin-6(10bH)-one] | – | – | – | – |
| > 10000 | inactive | 1 | > 120 | CN1C[C@@H]2CNC(=O)c3cc(OCc4c(F)cccc4F)ccc3[C@H]2C1 [Example 209, (3aS,10bS)-8-(2,6-Difluorobenzyloxy)-2-methyl-1,2,3,3a,4,5-hexahydrobenzo[e]pyrrolo[3,4-c]azepin-6(10bH)-one] | – | – | – | – |
| > 10000 | inactive | 2 | > 120 | CN1C[C@@H]2CNC(=O)c3cc(OCc4ccc(F)c(F)c4)ccc3[C@H]2C1 [Example 210, (3aS,10bS)-8-(3,4-Difluorobenzyloxy)-2-methyl-1,2,3,3a,4,5-hexahydrobenzo[e]pyrrolo[3,4-c]azepin-6(10bH)-one] | – | – | – | – |
| > 10000 | inactive | 2 | > 120 | CN1C[C@@H]2CNC(=O)c3cc(OCc4ccc(F)cc4)ccc3[C@H]2C1 [Example 211, (3aS,10bS)-8-(4-Fluorobenzyloxy)-2-methyl-1,2,3,3a,4,5-hexahydrobenzo[e]pyrrolo[3,4-c]azepin-6(10bH)-one] | – | – | – | – |
| > 10000 | inactive | 0.9 | > 120 | CN1C[C@@H]2CNC(=O)c3cc(OCc4cccc(F)c4F)ccc3[C@H]2C1 [Example 212, (3aS,10bS)-8-(2,3-Difluorobenzyloxy)-2-methyl-1,2,3,3a,4,5-hexahydrobenzo[e]pyrrolo[3,4-c]azepin-6(10bH)-one] | – | – | – | – |
| > 10000 | inactive | 1 | > 120 | CN1C[C@@H]2CNC(=O)c3cc(OCc4c(F)ccc(F)c4F)ccc3[C@H]2C1 [Example 213, (3aS,10bS)-2-Methyl-8-(2,3,6-trifluorobenzyloxy)-1,2,3,3a,4,5-hexahydrobenzo[e]pyrrolo[3,4-c]azepin-6(10bH)-one] | – | – | – | – |
| > 10000 | inactive | < 0.1 | > 120 | O=C1NC[C@H]2CNC[C@@H]2c2ccc(-c3ccc(F)cc3)cc21 [Example 220, (3aR,10bS)-8-(4-Fluorophenyl)-1,2,3,3a,4,5-hexahydrobenzo[e]pyrrolo[3,4-c]azepin-6(10bH)-one] | – | – | – | – |
| > 10000 | inactive | – | > 120 | O=C1NC[C@@H]2CNC[C@H]2c2ccc(-c3ccc(F)cc3)cc21 [Example 221, (3aS,10bR)-8-(4-Fluorophenyl)-1,2,3,3a,4,5-hexahydrobenzo[e]pyrrolo[3,4-c]azepin-6(10bH)-one] | – | – | – | – |
